Experiments:
[1] = biological target: T1, EP4 (Homo sapiens, UniProt P35408); assay: Competitive Radioligand EP4 Receptor Binding Assay ([3H]-PGE2, Chem-1 cell membranes); design: purchased Millipore; host or cells: Chem-1 cells; conditions: human EP4-overexpressing cell membrane fraction, 12 nM [3H]-PGE2; read-out: Ki of inhibition of radiolabelled PGE2 binding, human EP4
Procedure: (§1) Competitive Radioligand EP4 Receptor Binding Assay: The assay was performed using ChemiScreen recombinant human EP4 receptor membrane preparations from Millipore using Chem-1 cells and mouse EP4 receptor membrane preparations from Genscript using U2OS clone, according to manufacturer's instructions. For human EP4 binding, 10 μg Chem-1 cell membranes overexpressing human EP4 cDNA were mixed with 12 nM [^3H]-PGE2 and 5 μmol/L unlabeled PGE2 or 0.1% DMSO in the presence or absence of various concentrations of testing compounds in binding buffer (50 mM HEPES, pH 7.4, 5 mM MgCl2, 1 mM CaCl2, 0.2% BSA) in a nonbinding 96-well plate, and incubated for 2 h at room temperature. For mouse EP4 binding, 60 μg of U2OS membranes were used in the same condition. Prior to filtration, a GF/C 96-well filter plate was coated with 0.33% polyethyleneimine for 30 min, then washed with 50 mM HEPES, pH 7.4, 0.5% BSA. Binding reactions were transferred to the filter plate, and washed 3 times with assay Wash Buffer (50 mM HEPES, pH7.4, 500 mM NaCl, 0.1% BSA). The plate was dried and radioactivity counted. The data were processed using PRISM software, and IC50 and Ki values were calculated using the same software.

[2] = system: 4T1 cells; assay: In vivo anti-tumor pharmacology, mouse breast 4T1 syngeneic tumor model
Procedure: In vivo Anti-tumor Pharmacology: 4T1 cells were maintained in RPMI 1640 medium supplemented with 10% FBS at 37° C. and 5% CO2 atmosphere. Cell detachment was obtained using standard trypsinization methods, quantification of cell numbers and viability information using the NC-200 automated cell counter. Compound 1 was thoroughly suspended in 0.5% methyl cellulose (MC) by sonication at 4° C. for 15 min before oral administration (p.o.) to animals. BALB/c mice were injected subcutaneously (s.c.) with live 1×10^5 4 T1 cells. Mice developed tumors of approximately 36 mm^3 in 5 days. 4T1 tumor-bearing mice were randomized and mapped into 5 groups of 10 mice each: group A received vehicle (0.5% MC); group B received 0.1 mg/kg of compound 1; group C received 1 mg/kg of compound 1, group D received 25 mg/kg of compound 1; and group E received 150 mg/kg of compound 1. All treatments were give p.o. daily for 21 consecutive days. Tumor volumes and body weights were measured twice weekly. Study was terminated 27 days after tumor cell injection. Tumor volumes were expressed as mean±SEM. Tumor volume differences among treated mouse groups on day 27 were analyzed by the one-way ANOVA followed by Tukey's test. P≤0.05 values were considered significant.

[3] = biological target: T1, EP4; assay: EP4 Antagonism by CRE-PLAP Reporter Assay (SE302 cells, PGE2-stimulated); type: cell-based; design: HEK293 cells express endogenous EP4; endogenous in cells; host or cells: SE302 (HEK293 clone with CRE-PLAP reporter); conditions: SE302 (HEK293) cells, 3 ng/mL PGE2, overnight; single or multiple assay average values
Procedure, shortened: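 HEK293-derived SE302 cells with endogenous EP4 and CRE-driven secreted PLAP, in serum-free medium with 0.1% BSA, stimulated overnight with 3 ng/mL PGE2 plus compound. Supernatant PLAP read by luminescence (pH 11 carbonate buffer, 2 h). IC50 from % of control, normalized to DMSO with and without PGE2.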

[4] = biological target: T2, mouse EP4 receptor (Mus musculus, UniProt P32240); assay: Competitive Radioligand EP4 Receptor Binding Assay ([3H]-PGE2, U2OS membranes); conditions: mouse EP4-overexpressing cell membrane fraction, 12 nM [3H]-PGE2; read-out: Ki of inhibition of radiolabelled PGE2 binding, mouse EP4
T2 construct: purchased Genscript; host or cells: U2OS clone
T2 sequence (P32240 whole entry): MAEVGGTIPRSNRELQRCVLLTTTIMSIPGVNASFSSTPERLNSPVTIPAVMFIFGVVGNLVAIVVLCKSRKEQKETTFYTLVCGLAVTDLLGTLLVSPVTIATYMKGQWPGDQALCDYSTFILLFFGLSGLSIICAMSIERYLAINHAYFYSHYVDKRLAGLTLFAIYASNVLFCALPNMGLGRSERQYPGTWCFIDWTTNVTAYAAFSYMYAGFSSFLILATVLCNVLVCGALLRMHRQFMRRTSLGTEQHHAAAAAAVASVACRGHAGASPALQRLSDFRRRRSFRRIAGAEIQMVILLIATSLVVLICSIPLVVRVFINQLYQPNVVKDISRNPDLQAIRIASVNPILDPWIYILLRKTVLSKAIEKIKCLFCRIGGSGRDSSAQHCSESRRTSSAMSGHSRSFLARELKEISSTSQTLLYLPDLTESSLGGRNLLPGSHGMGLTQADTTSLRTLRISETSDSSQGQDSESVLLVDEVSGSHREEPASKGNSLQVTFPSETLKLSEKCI
Procedure: as §1

T1 sequence (P35408 whole entry): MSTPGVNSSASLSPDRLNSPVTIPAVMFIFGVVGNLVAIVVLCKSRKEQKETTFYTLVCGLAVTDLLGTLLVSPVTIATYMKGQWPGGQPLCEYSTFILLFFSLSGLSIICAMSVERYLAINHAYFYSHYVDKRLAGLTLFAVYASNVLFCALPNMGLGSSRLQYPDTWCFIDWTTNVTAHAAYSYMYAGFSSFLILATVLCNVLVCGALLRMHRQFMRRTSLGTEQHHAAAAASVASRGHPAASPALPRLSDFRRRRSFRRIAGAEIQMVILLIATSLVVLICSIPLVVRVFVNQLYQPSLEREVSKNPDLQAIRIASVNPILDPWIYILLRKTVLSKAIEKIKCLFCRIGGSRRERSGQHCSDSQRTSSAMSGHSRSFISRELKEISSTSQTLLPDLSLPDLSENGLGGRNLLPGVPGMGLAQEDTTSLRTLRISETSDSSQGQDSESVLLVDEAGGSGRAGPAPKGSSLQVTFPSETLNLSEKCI

C[C@H](NC(=O)c1c(C(F)(F)F)nn2c1N(Cc1cccc(C(F)(F)F)c1)CC2)c1ccc(C(=O)O)cc1 [Compound 1, (S)-4-(1-(6-(trifluoromethyl)-1-(3-(trifluoromethyl)benzyl)-2,3-dihydro-1H-imidazo[1,2-b]pyrazole-7-carboxamido)ethyl)benzoic Acid]
Ki [1]: 4.2 nM | gross toxicity judged from animal body weight and overall animal behavior ([2]; 0.1-150 mg/kg p.o. daily for 21 days, BALB/c mice): None of the doses tested showed gross toxicity | tumor growth inhibition ([2]; 0.1 and 1.0 mg/kg p.o. daily for 21 days, day 27): some inhibition was observed, but without statistical significance | tumor growth inhibition ([2]; 25 and 150 mg/kg p.o. daily for 21 days, day 27): Statistically significant inhibition of tumor growth | tumor growth inhibition ([2]; 25 and 150 mg/kg p.o. daily for 21 days, day 27, listed as compound 1): significant and comparable anti-tumor activity | tumor growth inhibition ([2]; BALB/c mice, 4T1 s.c. tumors, p.o. daily for 21 days, range 0.1 mg/kg-150 mg/kg): inhibited the tumor growth in a dose-dependent manner | IC50 [3]: 0.34 nM | Ki [4]: 26.3 nM

From patent publication US11434246B2, “EP4 antagonists” (Eisai R&D Management Co., Ltd., priority 2015, dated 2022)
